Results as given in patent US4212862A, “O,O-Diaryl-1-acyloxy-2,2,2-trichloroethylphosphonates and fungicides based thereon” (priority 1978, dated 1980).
Values joined by “and” are separate entries in the source; they are usually repeats but may differ in a detail not shown here. Identical values can stand only once. Like-named read-outs stand apart in the source and are kept apart here.

Legend:
[1] = system: spores of Piricularia oryzae Cav.; assay type: cell-based; conditions: for Concentration causing 50% death of spores: 24 hours
[2] = system: potato phytophthora (Phytophthora infestans); assay type: in vivo; conditions: 1% aqueous emulsion; 18 °C, 14 days
[3] = system: rust diseases of cereal crops; conditions: prior art; cited from earlier work
plants = conditions: prior art; cited from earlier work
[4] = system: stalk rust (Puccinia graminis f. tritici); assay type: in vivo
[5] = system: apple scab (Venturia inaequalis); conditions: in vivo
white mice = assay: Acute peroral toxicity for warm-blooded animals (LD50, LD90); assay type: in vivo; conditions: peroral
Method: (§1) Toxicity (LD50) was evaluated on males and females of white mice with peroral administration of the compounds. A portion of the test compound was mixed with the emulsifier Twin-20 and diluted with distilled water to the required working concentration. Administration of the preparation was effected by means of a metal probe and syringe directly into the stomach of test animals 2-3 hours after feeding. The tests were performed using several doses, 6 animals per each dose. Subsequent observation was effected for two weeks.

[6] = as above; assay type: in vivo, white mice; conditions: mouse, in vivo, po
Method: as §1

[7] = system: rust diseases of cereal crops; assay: Activity against rust diseases of cereal crops (general statements); assay type: in vivo
[8] = system: stalk rust of wheat (Puccinia graminis); assay type: in vivo; conditions: in vivo
[9] = system: stalk rust (Puccinia graminis f. tritici); assay type: in vivo; conditions: for Plant injury / Weight of 1,000 grains: Table 5, Moscow region, spring wheat Krasnozernaja, 3 sprayings
[10] = prior art; cited from earlier work
yellow rust of wheat = conditions: in vivo
[11] = system: stalk rust (Puccinia graminis f. tritici); assay type: in vivo; conditions: Table 8, 3.0 kg/ha, 3 sprayings
[12] = system: yellow rust (P. striiformis); assay: Efficiency of Aphos for USVS against yellow rust of wheat under field conditions (Table 8); assay type: in vivo; conditions: Taskent region, spring wheat Kzyl Shark, 3.0 kg/ha, 7.5 l/ha (Zineb 600), 3 sprayings
[13] = Table 2, peroral, read-out: LD50 for white mice
[14] = seeds after storage of grains for one year
[15] = Krasnodar region, winter wheat Odesskaja-51, 7.5 l/ha (Zineb 3.2 kg/ha, 600 l/ha)
[16] = Moscow region, spring wheat Krasnozernaja, 7.5 l/ha (Zineb 600)

## CCOP(=O)(OCC)SCc1ccccc1 [kitacin, O,O-diethyl-S-benzylthiophosphate, reference compound]
[1]
  Concentration causing 50% death of spores: 28.6 mg/L

## CN(C)C(=S)SSC(=S)N(C)C [TMTD, tetramethylthiuramdisulphide]
[2]
  sporulation on treated tubers: individual conidia were observed

## Nc1ccc(S(=O)(=O)O)cc1 [anilate]
[3]
  activity against rust diseases: low-efficiency
plants
  phytotoxicity: phytotoxic

## CC(=O)OC(C(Cl)(Cl)Cl)P(=O)(Oc1ccccc1)Oc1ccccc1 (stereo not drawn) [I, O,O-diphenyl-1-acetoxy-2,2,2-trichloroethylphosphonate]
[4]; in vivo
  Percentage of plants injured with rust, 1-st evaluation: 0.5%
  Percentage of plants injured with rust, 2-nd evaluation: 7.0%
  Weight of 1,000 grains: 18.7 g
  Yield: 17.40 c/ha
[1]
  efficiency of suppressing spores relative to kitacin: about 40 times
  superiority over kitacin in respect of activity: about 50 times
  Concentration causing 50% death of spores: 0.69 mg/L
[5]
  protection of the apple tree from scab: complete protection
White mice; Table 14, female mice
  LD90 with trusty limits: 8,200 mg/kg
[6]; [13]
  LD50 at 336 h: 3500 mg/kg
[6]; Table 14, female mice, peroral, read-out: LD50 with trusty limits
  LD50 at 336 h: 3500 mg/kg
[6]; white mice, peroral administration, read-out: acute toxicity
  LD50 at 336 h: ~3500 mg/kg
Wheat plants; even at 8-times the increase of the dose
  effect on yield of wheat grain: does not lower the yield of wheat grain
Wheat plants; [14]
  germination power: 99.5%
  sprouting energy: 98.5%
[7]; compared to zineb
  period of fungicidal effect as compared to zineb: longer period of a fungicidal effect as compared to zineb
[7]; even at a high level of infection
  protection of cereal crops from rust: substantially completely protect cereal crops from rust
[7]; high-volume spraying and USVS at 5 to 8 l/ha
  increase of the grain yield: up to 24 c/ha
[7]; including zineb and hydroxycarboxine
  efficiency compared with prior art anti-rust compositions: superior over the prior art anti-rust fungicidal compositions including zineb and hydroxycarboxine
[8]
  Percentage of injury lowered: 98-100% and 70-97%

## CCCCCCC(=O)OC(C(Cl)(Cl)Cl)P(=O)(Oc1ccc(-c2ccccc2)cc1)Oc1ccc(-c2ccccc2)cc1 (stereo not drawn) [XLIX]
White mice; Table 2, 20160 min
  LD50 for white mice: > 1,000 mg/kg
[8]
  Percentage of injury lowered: 49%

## CCC(=O)OC(C(Cl)(Cl)Cl)P(=O)(Oc1ccc(C)cc1)Oc1ccc(C)cc1 (stereo not drawn) [XIX]
[4]; in vivo
  Percentage of plants injured with rust, 1-st evaluation: 0.5%
  Percentage of plants injured with rust, 2-nd evaluation: 8.0%
  Weight of 1,000 grains: 18.9 g
  Yield: 14.60 c/ha
[6]; [13]
  LD50 at 336 h: > 1000 mg/kg
[8]
  Percentage of injury lowered: 100% and 66%

## CCC(=O)OC(C(Cl)(Cl)Cl)P(=O)(Oc1cc(C)cc(C)c1)Oc1cc(C)cc(C)c1 (stereo not drawn) [XXVII]
[4]; in vivo
  Percentage of plants injured with rust, 1-st evaluation: 0.5%
  Percentage of plants injured with rust, 2-nd evaluation: 10.5%
  Weight of 1,000 grains: 17.1 g
  Yield: 11.50 c/ha
[6]; [13]
  LD50 at 336 h: > 1000 mg/kg
[8]
  Percentage of injury lowered: 92%

## CCCCC(CC)C(=O)OC(C(Cl)(Cl)Cl)P(=O)(Oc1ccccc1)Oc1ccccc1 (stereo not drawn) [V]
[4]; in vivo
  Percentage of plants injured with rust, 1-st evaluation: 0.5%
  Percentage of plants injured with rust, 2-nd evaluation: 13.0%
  Weight of 1,000 grains: 14.8 g
  Yield: 9.50 c/ha
[6]; [13]
  LD50 at 336 h: > 1000 mg/kg
[8]
  Percentage of injury lowered: 74% and 61%

## CC(=O)OC(C(Cl)(Cl)Cl)P(=O)(Oc1ccccc1C)Oc1ccccc1C (stereo not drawn) [VII]
[4]; in vivo
  Percentage of plants injured with rust, 1-st evaluation: 0.5%
  Percentage of plants injured with rust, 2-nd evaluation: 9.0%
  Weight of 1,000 grains: 15.1 g
  Yield: 10.10 c/ha
[6]; [13]
  LD50 at 336 h: > 1000 mg/kg
[8]
  Percentage of injury lowered: 83% and 77%

## CCCCCCC(=O)OC(C(Cl)(Cl)Cl)P(=O)(Oc1cccc(C)c1)Oc1cccc(C)c1 (stereo not drawn) [XV]
[4]; in vivo
  Percentage of plants injured with rust, 1-st evaluation: 0.5%
  Percentage of plants injured with rust, 2-nd evaluation: 7.0%
  Weight of 1,000 grains: 19.4 g
  Yield: 15.10 c/ha
[6]; [13]
  LD50 at 336 h: > 1000 mg/kg
[8]
  Percentage of injury lowered: 98% and 80%

## O=C(OC(C(Cl)(Cl)Cl)P(=O)(Oc1ccccc1)Oc1ccccc1)c1ccccc1 (stereo not drawn) [VI]
[4]; in vivo
  Percentage of plants injured with rust, 1-st evaluation: 0.5%
  Percentage of plants injured with rust, 2-nd evaluation: 8.5%
  Weight of 1,000 grains: 16.4 g
  Yield: 11.30 c/ha
[6]; [13]
  LD50 at 336 h: > 1000 mg/kg
[8]
  Percentage of injury lowered: 99% and 98%

## CCCCCCCCc1ccc(OP(=O)(Oc2ccc(CCCCCCCC)cc2)C(OC(C)=O)C(Cl)(Cl)Cl)cc1 (stereo not drawn) [XXIV]
[4]; in vivo
  Percentage of plants injured with rust, 1-st evaluation: 0.5%
  Percentage of plants injured with rust, 2-nd evaluation: 12.0%
  Weight of 1,000 grains: 13.5 g
  Yield: 8.00 c/ha
[6]; [13]
  LD50 at 336 h: > 1000 mg/kg
[8]
  Percentage of injury lowered: 62% and 35%

## CCC(=O)OC(C(Cl)(Cl)Cl)P(=O)(Oc1ccccc1)Oc1ccccc1 (stereo not drawn) [II]
[4]; in vivo
  Percentage of plants injured with rust, 1-st evaluation: 0.5%
  Percentage of plants injured with rust, 2-nd evaluation: 11.0%
  Weight of 1,000 grains: 16.5 g
  Yield: 11.50 c/ha
[6]; [13]
  LD50 at 336 h: > 1000 mg/kg
[8]
  Percentage of injury lowered: 78% and 63%

## CCC(=O)OC(C(Cl)(Cl)Cl)P(=O)(Oc1ccc(Cl)cc1)Oc1ccc(Cl)cc1 (stereo not drawn) [XXXI]
[4]; in vivo
  Percentage of plants injured with rust, 1-st evaluation: 0.5%
  Percentage of plants injured with rust, 2-nd evaluation: 8.0%
  Weight of 1,000 grains: 18.0 g
  Yield: 13.30 c/ha
[6]; [13]
  LD50 at 336 h: > 1000 mg/kg
[8]
  Percentage of injury lowered: 82% and 59%

## CC1=C(C(=O)Nc2ccccc2)S(=O)(=O)CCO1 [Hydroxycarboxine, 1,4-dioxide-2,3-dihydro-6-methyl-5-phenylcarbamoyl-1,4-oxathiine]
[9]; 1.5 kg/ha a.p.
  Plant injury: 21.7%
  Weight of 1,000 grains: 12.0 g
[9]; 3.0 kg/ha a.p.
  Plant injury: 16.1%
  Weight of 1,000 grains: 12.4 g
[9]; in vivo
  Yield: 9.5 c/ha and 9.3 c/ha
[3]
  activity against rust diseases: efficient in killing rust fungi
[7]
  efficiency under different agroclimatic conditions including frequent heavy rains: low-effective

## CCC(=O)OC(C(Cl)(Cl)Cl)P(=O)(Oc1ccccc1C)Oc1ccccc1C (stereo not drawn) [VIII]
[4]; in vivo
  Percentage of plants injured with rust, 1-st evaluation: 0.5%
  Percentage of plants injured with rust, 2-nd evaluation: 8.5%
  Weight of 1,000 grains: 15.3 g
  Yield: 10.15 c/ha
[6]; [13]
  LD50 at 336 h: > 1000 mg/kg
[8]
  Percentage of injury lowered: 96% and 76%

## CCCC(=O)OC(C(Cl)(Cl)Cl)P(=O)(Oc1ccccc1)Oc1ccccc1 (stereo not drawn) [III]
[4]; in vivo
  Percentage of plants injured with rust, 1-st evaluation: 0.5%
  Percentage of plants injured with rust, 2-nd evaluation: 7.0%
  Weight of 1,000 grains: 18.4 g
  Yield: 14.00 c/ha
[6]; [13]
  LD50 at 336 h: > 500 mg/kg
[8]
  Percentage of injury lowered: 68% and 51%

## CC(=O)OC(C(Cl)(Cl)Cl)P(=O)(Oc1ccc(Cl)cc1)Oc1ccc(Cl)cc1 (stereo not drawn) [XXX]
[4]; in vivo
  Percentage of plants injured with rust, 1-st evaluation: 0.5%
  Percentage of plants injured with rust, 2-nd evaluation: 7.0%
  Weight of 1,000 grains: 20.9 g
  Yield: 16.70 c/ha
[6]; [13]
  LD50 at 336 h: > 1000 mg/kg
[8]
  Percentage of injury lowered: 89% and 68%

## CCCC(=O)OC(C(Cl)(Cl)Cl)P(=O)(Oc1cccc(C)c1)Oc1cccc(C)c1 (stereo not drawn) [XIV]
[4]; in vivo
  Percentage of plants injured with rust, 1-st evaluation: 0.5%
  Percentage of plants injured with rust, 2-nd evaluation: 7.0%
  Weight of 1,000 grains: 17.2 g
  Yield: 12.00 c/ha
[6]; [13]
  LD50 at 336 h: > 1000 mg/kg
[8]
  Percentage of injury lowered: 99% and 92%

## zinc ethylenebisdithiocarbamate [Zineb]
[4]; 3 kg/ha a.i., three sprayings
  Weight of 1,000 grains: 14.0 g
  Yield: 8.55 c/ha
[4]; 3 kg/ha a.i., 9 days after the first spraying, Moscow region, spring wheat Krasnozernaja
  Percentage of plants injured with rust, 1-st evaluation: 0.5%
[4]; 3 kg/ha a.i., two weeks after the third spraying, Moscow region, spring wheat Krasnozernaja
  Percentage of plants injured with rust, 2-nd evaluation: 12.0%
[5]
  reduced the degree of injury as compared to the control: 97%
[3]
  activity against rust diseases: high activity
[7]
  efficiency under different agroclimatic conditions including frequent heavy rains: low-effective
[10]
  stability upon storage: not stable upon storage
Yellow rust of wheat
  Percentage of injured plants, 17.05: 4% and 6% and 5%
  Weight of 1,000 grains: 35.4 g and 31.0 g and 34.8 g
  Yield: 411 and 351 and 412
  efficiency with longer intervals between sprayings: substantially reduced to zero
[11]; [15]
  Grain yield: 34.5 c/ha
  Percentage of injured plants: 16.0%
  Weight of 1,000 grains: 35.6 g
[11]; [16]
  Grain yield: 8.0 c/ha
  Percentage of injured plants: 23.3%
  Weight of 1,000 grains: 12.6 g
[12]
  Grain yield: 20.8 c/ha
  Percentage of injured plants: 14.4%
  Weight of 1,000 grains: 31.6 g
